The record followed here is ChEMBL document CHEMBL3044541, “Control of crown rot-causing fungal pathogens of banana by inorganic salts and a surfactant” (Crop Prot, 2007).

Calls of active or inactive are those of the source. The calls are words filed in the database; no cut-off is given here.

Assay type in all cases: functional
Test [1] deals with Fusarium verticillioides. The test is described as follows: Growth inhibition of Fusarium verticillioides assessed as inhibition of mycelial growth up to 160 g/l incubated for 15 min followed by compound washout measured after 7 days in absence of surfactant APSA 80.
Test [2] deals with Colletotrichum musae. The test is described as follows: Growth inhibition of Colletotrichum musae assessed as inhibition of mycelial growth up to 160 g/l incubated for 15 min followed by compound washout measured after 7 days in absence of surfactant APSA 80.
For test [3], the system named is Lasiodiplodia theobromae. The test can be described thus: Growth inhibition of Lasiodiplodia theobromae assessed as concentration required for inhibition of mycelial growth incubated for 15 min followed by compound washout measured after 7 days in absence of surfactant APSA 80.
In test [4] the test system is Lasiodiplodia theobromae. The test is described as follows: Growth inhibition of Lasiodiplodia theobromae assessed as concentration required for inhibition of mycelial growth incubated for 15 min followed by compound washout measured after 7 days in presence of surfactant APSA 80.
The subject of test [5] is Fusarium verticillioides. The test can be described thus: Antifungal activity against Fusarium verticillioides infected Cavendish banana fruit assessed as reduction in crown rot incubated for 15 min followed by compound washout measured after 3 weeks in presence of surfactant APSA 80 relative to control. Further details: scale not given: the % may be the effect or the level left. The settings on record: pooled result: one value given for 4 cell lines, strains, targets or settings.

In test [6] the test system is Fusarium verticillioides. The test can be described thus: Antifungal activity against Fusarium verticillioides infected Cavendish banana fruit assessed as reduction in crown rot incubated for 15 min followed by compound washout measured after 3 weeks in absence of surfactant APSA 80 relative to control. Further details: scale not given: the % may be the effect or the level left. The settings on record: pooled result: one value given for 4 cell lines, strains, targets or settings.

Test [7] relates to Fusarium verticillioides. The test can be described thus: Antifungal activity against Fusarium verticillioides infected Cavendish banana fruit assessed as reduction in crown rot incubated for 15 min followed by compound washout measured after 2 weeks in presence of surfactant APSA 80 relative to control. Further details: scale not given: the % may be the effect or the level left.

Test [8] deals with Colletotrichum musae. The test is described as follows: Antifungal activity against Colletotrichum musae infected Cavendish banana fruit assessed as reduction in crown rot incubated for 15 min followed by compound washout measured after 2 weeks in presence of surfactant APSA 80 relative to control. Further details: scale not given: the % may be the effect or the level left.
The test system of test [9] is Thielaviopsis paradoxa. The test is described as follows: Antifungal activity against Ceratocystis paradoxa infected Cavendish banana fruit assessed as reduction in crown rot incubated for 15 min followed by compound washout measured after 2 weeks in presence of surfactant APSA 80 relative to control. Further details: scale not given: the % may be the effect or the level left.

The test system of test [10] is Lasiodiplodia theobromae. The test is described as follows: Antifungal activity against Lasiodiplodia theobromae infected Cavendish banana fruit assessed as reduction in crown rot incubated for 15 min followed by compound washout measured after 2 weeks in presence of surfactant APSA 80 relative to control. Further details: scale not given: the % may be the effect or the level left.

The subject of test [11] is Fusarium verticillioides. The test can be described thus: Antifungal activity against Fusarium verticillioides infected Cavendish banana fruit assessed as reduction in crown rot incubated for 15 min followed by compound washout measured after 2 weeks in absence of surfactant APSA 80 relative to control. Further details: scale not given: the % may be the effect or the level left.

For test [12], the system named is Colletotrichum musae. The test is described as follows: Antifungal activity against Colletotrichum musae infected Cavendish banana fruit assessed as reduction in crown rot incubated for 15 min followed by compound washout measured after 2 weeks in absence of surfactant APSA 80 relative to control. Further details: scale not given: the % may be the effect or the level left.

The test system of test [13] is Thielaviopsis paradoxa. The test is described as follows: Antifungal activity against Ceratocystis paradoxa infected Cavendish banana fruit assessed as reduction in crown rot incubated for 15 min followed by compound washout measured after 2 weeks in absence of surfactant APSA 80 relative to control. Further details: scale not given: the % may be the effect or the level left.

The test system of test [14] is Lasiodiplodia theobromae. The test is described as follows: Antifungal activity against Lasiodiplodia theobromae infected Cavendish banana fruit assessed as reduction in crown rot incubated for 15 min followed by compound washout measured after 2 weeks in absence of surfactant APSA 80 relative to control. Further details: scale not given: the % may be the effect or the level left.

In test [15] the test system is Fusarium verticillioides. The test is described as follows: Antifungal activity against Fusarium verticillioides infected Cavendish banana fruit assessed as reduction in crown rot incubated for 15 min followed by compound washout measured after 1 week in presence of surfactant APSA 80 relative to control. Further details: scale not given: the % may be the effect or the level left.

Test [16] relates to Colletotrichum musae. The test can be described thus: Antifungal activity against Colletotrichum musae infected Cavendish banana fruit assessed as reduction in crown rot incubated for 15 min followed by compound washout measured after 1 week in presence of surfactant APSA 80 relative to control. Further details: scale not given: the % may be the effect or the level left.
The subject of test [17] is Thielaviopsis paradoxa. The test is described as follows: Antifungal activity against Ceratocystis paradoxa infected Cavendish banana fruit assessed as reduction in crown rot incubated for 15 min followed by compound washout measured after 1 week in presence of surfactant APSA 80 relative to control. Further details: scale not given: the % may be the effect or the level left.

Test [18] concerns Lasiodiplodia theobromae. The test can be described thus: Antifungal activity against Lasiodiplodia theobromae infected Cavendish banana fruit assessed as reduction in crown rot incubated for 15 min followed by compound washout measured after 1 week in presence of surfactant APSA 80 relative to control. Further details: scale not given: the % may be the effect or the level left.

Test [19] relates to Fusarium verticillioides. The test is described as follows: Antifungal activity against Fusarium verticillioides infected Cavendish banana fruit assessed as reduction in crown rot incubated for 15 min followed by compound washout measured after 1 week in absence of surfactant APSA 80 relative to control. Further details: scale not given: the % may be the effect or the level left.

The test system of test [20] is Colletotrichum musae. The test can be described thus: Antifungal activity against Colletotrichum musae infected Cavendish banana fruit assessed as reduction in crown rot incubated for 15 min followed by compound washout measured after 1 week in absence of surfactant APSA 80 relative to control. Further details: scale not given: the % may be the effect or the level left.

Test [21] has as its system Thielaviopsis paradoxa. The test is described as follows: Antifungal activity against Ceratocystis paradoxa infected Cavendish banana fruit assessed as reduction in crown rot incubated for 15 min followed by compound washout measured after 1 week in absence of surfactant APSA 80 relative to control. Further details: scale not given: the % may be the effect or the level left.

Test [22] has as its system Lasiodiplodia theobromae. The test can be described thus: Antifungal activity against Lasiodiplodia theobromae infected Cavendish banana fruit assessed as reduction in crown rot incubated for 15 min followed by compound washout measured after 1 week in absence of surfactant APSA 80 relative to control. Further details: scale not given: the % may be the effect or the level left.

The test system of test [23] is Fusarium verticillioides. The test can be described thus: Antifungal activity against Fusarium verticillioides assessed as reduction in colony diameter at 10 to 160 g/l incubated for 15 min followed by compound washout measured after 7 days in absence of surfactant APSA 80 relative to control. Further details: scale not given: the % may be the effect or the level left.

In test [24] the test system is Colletotrichum musae. The test can be described thus: Antifungal activity against Colletotrichum musae assessed as reduction in colony diameter at 10 to 160 g/l incubated for 15 min followed by compound washout measured after 7 days in absence of surfactant APSA 80 relative to control. Further details: scale not given: the % may be the effect or the level left.
Test [25] relates to Thielaviopsis paradoxa. The test can be described thus: Antifungal activity against Ceratocystis paradoxa assessed as reduction in colony diameter at 10 to 160 g/l incubated for 15 min followed by compound washout measured after 7 days in absence of surfactant APSA 80 relative to control. Further details: scale not given: the % may be the effect or the level left.
Test [26] has as its system Lasiodiplodia theobromae. The test is described as follows: Antifungal activity against Lasiodiplodia theobromae assessed as reduction in colony diameter at 10 to 160 g/l incubated for 15 min followed by compound washout measured after 7 days in absence of surfactant APSA 80 relative to control. Further details: scale not given: the % may be the effect or the level left.

Test [27] deals with Fusarium verticillioides. The test can be described thus: Antifungal activity against Fusarium verticillioides assessed as reduction in colony diameter at 10 to 160 g/l incubated for 15 min followed by compound washout measured after 7 days in presence of surfactant APSA 80 relative to control. Further details: scale not given: the % may be the effect or the level left.
Test [28] deals with Colletotrichum musae. The test is described as follows: Antifungal activity against Colletotrichum musae assessed as reduction in colony diameter at 10 to 160 g/l incubated for 15 min followed by compound washout measured after 7 days in presence of surfactant APSA 80 relative to control. Further details: scale not given: the % may be the effect or the level left.
Test [29] deals with Thielaviopsis paradoxa. The test can be described thus: Antifungal activity against Ceratocystis paradoxa assessed as reduction in colony diameter at 10 to 160 g/l incubated for 15 min followed by compound washout measured after 7 days in presence of surfactant APSA 80 relative to control. Further details: scale not given: the % may be the effect or the level left.
The test system of test [30] is Lasiodiplodia theobromae. The test can be described thus: Antifungal activity against Lasiodiplodia theobromae assessed as reduction in colony diameter at 10 to 160 g/l incubated for 15 min followed by compound washout measured after 7 days in presence of surfactant APSA 80 relative to control. Further details: scale not given: the % may be the effect or the level left.

As for `O=C([O-])[O-].[Na+].[Na+]`, the outcome in the test on Fusarium verticillioides [1] and with Colletotrichum musae [2] was inactive.
As for `O=C([O-])O.[Na+]` [SODIUM BICARBONATE], the Activity with Lasiodiplodia theobromae [3] turned out to be 150 g/L; with Lasiodiplodia theobromae [4], 100 g/L; in the test with Fusarium verticillioides [5], 12%; in the test with Fusarium verticillioides [6], 58%; in the test on Fusarium verticillioides [7] it was 0%; in the test on Colletotrichum musae [8], 0%. For the same molecule, the Activity came to 0% in the test on Thielaviopsis paradoxa [9]; 0% in the test on Lasiodiplodia theobromae [10]; 25% with Fusarium verticillioides [11]; 25% with Colletotrichum musae [12]; 25% with Thielaviopsis paradoxa [13]; 25% with Lasiodiplodia theobromae [14]. Besides, the Activity with Fusarium verticillioides [15], in the test on Colletotrichum musae [16], in the test with Thielaviopsis paradoxa [17], with Lasiodiplodia theobromae [18], in the test with Fusarium verticillioides [19] and in the test with Colletotrichum musae [20] was 0% throughout. The Activity stood at 0% in the test on Thielaviopsis paradoxa [21]; 0% with Lasiodiplodia theobromae [22]; 0% in the test with Fusarium verticillioides [23]; 18% in the test with Colletotrichum musae [24]; 36% with Thielaviopsis paradoxa [25]; 46% with Lasiodiplodia theobromae [26]. Further, the Activity in the test with Fusarium verticillioides [27] turned out to be 50%; with Colletotrichum musae [28], 80%; in the test with Thielaviopsis paradoxa [29], 76%; in the test with Lasiodiplodia theobromae [30], 72%.
